Measurements published in PMC5384962, “First-in-human studies of seletalisib, an orally bioavailable small-molecule PI3Kδ inhibitor for the treatment of immune and inflammatory diseases” (European Journal of Clinical Pharmacology, 2017).

Test: Study-2 safety/tolerability (adverse events)
Method: In total, 60 subjects were enrolled into five dose cohorts (n = 12 in each), and subjects were randomised (3:1) to receive seletalisib or placebo. Study-2 included initial dose cohorts of 30, 60 and 90 mg once-daily plus additional dose cohorts of 30 mg twice-daily and 45 mg once-daily.
Adverse events (AEs), serious AEs (SAEs), routine clinical laboratory parameters, vital signs and ECGs were monitored throughout the study periods and for ≤7 days post-administration of final-dose of seletalisib/placebo. The potential for seletalisib to cause gastrointestinal (GI) tract adverse effects was assessed by careful monitoring of subject reports of AEs such as abdominal pain, bloating, nausea, vomiting and alteration of bowel function (e.g. diarrhoea, constipation or bleeding). A formal safety review was conducted before each dose escalation. In Study-1 (Part-B), the potential for seletalisib to interfere with insulin signalling was assessed by monitoring blood glucose and C-peptide levels as part of the standard laboratory tests and by performance of oral glucose tolerance tests, measuring glucose and C-peptide levels, pre-dose and during exposure in all cohorts.
In each study, the primary population for analysis was the full analysis set (FAS), which comprised all subjects who had received ≥1 dose of seletalisib or placebo. PK analysis was performed on the PK per-protocol set (PK-PPS), which was a subset of the FAS consisting of subjects with no important protocol deviations likely to affect PK variables who received seletalisib; subjects who received placebo were excluded from this analysis. In Study-1 and Study-2, sample sizes of 57 and 36 subjects, respectively, were considered sufficient to permit assessment of the safety and tolerability of seletalisib and were not based on statistical considerations of power and sample size. In Study-1 (Part-A), a panel size of 15 subjects was selected to achieve good estimates of the PK/PD parameters.

## [O-][n+]1cccc(-c2nc3c(Cl)cccc3cc2[C@@H](Nc2ncnc3cccnc23)C(F)(F)F)c1 [Seletalisib, seletalisib]
Study-2, 30 mg BID
  Deaths: 0 n (%)
Study-2, 30 mg QD
  Deaths: 0 n (%)
Study-2, 45 mg QD
  Deaths: 0 n (%)
Study-2, 60 mg QD
  Deaths: 0 n (%)
Study-2, 90 mg QD
  Deaths: 0 n (%)
Study-2, seletalisib total
  Deaths: 0 n (%)
human, in vivo
  Any AE, number of events […]: 169
  number of rash-related AEs: 18
  number of subjects with AEs relating to GI disturbance: 10
  number of subjects with rash-related AEs: 12
  subjects who discontinued the study due to an AE: 13.3%
  subjects who experienced an AE: 71.1%
  subjects with SAEs: 4.4%
  subjects with headache: 24.4%
  subjects with rash: 24.4%
human, in vivo, 14 days
  Abdominal discomfort: 2 (4.4) n (%)
  Abdominal pain: 5 (11.1) n (%)
  Any AE: 32 (71.1) n (%)
  Dermatitis, contact: 4 (8.9) n (%)
  Diarrhoea: 3 (6.7) n (%)
  Discontinuations due to AEs: 6 (13.3) n (%)
  Discontinuations due to AEs, number of events […]: 6
  Dizziness: 5 (11.1) n (%)
  Drug-related AEs: 24 (53.3) n (%)
  Drug-related AEs, number of events […]: 136
  Dry mouth: 2 (4.4) n (%)
  Dysgeusia: 5 (11.1) n (%)
  Furuncle: 2 (4.4) n (%)
  Headache: 11 (24.4) n (%)
  Initial insomnia: 2 (4.4) n (%)
  Nausea: 6 (13.3) n (%)
  Oropharyngeal pain: 6 (13.3) n (%)
  Rash: 11 (24.4) n (%)
  Rash, generalised: 3 (6.7) n (%)
  Regurgitation: 2 (4.4) n (%)
  Serious AEs: 2 (4.4) n (%)
  Serious AEs, number of events […]: 2
  Severe AEs: 3 (6.7) n (%)
  Severe AEs, number of events […]: 3
  Somnolence: 2 (4.4) n (%)
  Toothache: 2 (4.4) n (%)
human, in vivo, po, 14 days
  Hypoaesthesia oral: 2 (4.4) n (%)
In vivo
  number of AEs relating to GI disturbance: Thirty-two
  number of infection-related AEs: four
